What was measured:
[1] = biological target: Serine/threonine-protein kinase SIK1 (Homo sapiens) (UniProt P57059); assay: Inhibition of T7 bacteriophage fused human SIK at 10 uM by KINOMEscan analysis relative to control
[2] = biological target: Serine/threonine-protein kinase 33 (Homo sapiens) (UniProt Q9BYT3); assay: Inhibition of T7 bacteriophage fused human STK33 at 10 uM by KINOMEscan analysis relative to control
[3] = biological target: SRSF protein kinase 3 (Homo sapiens) (UniProt Q9UPE1); assay: Inhibition of T7 bacteriophage fused human SRPK3 at 10 uM by KINOMEscan analysis relative to control
[4] = biological target: Serine/threonine-protein kinase SIK2 (Homo sapiens) (UniProt Q9H0K1); assay: Inhibition of T7 bacteriophage fused human SIK2 at 10 uM by KINOMEscan analysis relative to control
[5] = biological target: Tyrosine-protein kinase Tec (Homo sapiens) (UniProt P42680); assay: Inhibition of T7 bacteriophage fused human TEC at 10 uM by KINOMEscan analysis relative to control
[6] = biological target: Microtubule-associated serine/threonine-protein kinase 1 (Homo sapiens) (UniProt Q9Y2H9); assay: Inhibition of T7 bacteriophage fused human MAST1 at 10 uM by KINOMEscan analysis relative to control; values are per cent of control
[7] = biological target: Cyclin-dependent kinase 2 homolog (Plasmodium falciparum (isolate K1 / Thailand)) (UniProt Q07785); assay: Inhibition of T7 bacteriophage fused Plasmodium falciparum PK5 at 10 uM by KINOMEscan analysis relative to control
[8] = biological target: SRSF protein kinase 2 (Homo sapiens) (UniProt P78362); assay: Inhibition of T7 bacteriophage fused human SRPK2 at 10 uM by KINOMEscan analysis relative to control
[9] = biological target: T1, Dual specificity protein kinase TTK (Homo sapiens) (UniProt P33981); assay: Inhibition of T7 bacteriophage fused human TTK at 10 uM by KINOMEscan analysis relative to control
T1 sequence (whole entry): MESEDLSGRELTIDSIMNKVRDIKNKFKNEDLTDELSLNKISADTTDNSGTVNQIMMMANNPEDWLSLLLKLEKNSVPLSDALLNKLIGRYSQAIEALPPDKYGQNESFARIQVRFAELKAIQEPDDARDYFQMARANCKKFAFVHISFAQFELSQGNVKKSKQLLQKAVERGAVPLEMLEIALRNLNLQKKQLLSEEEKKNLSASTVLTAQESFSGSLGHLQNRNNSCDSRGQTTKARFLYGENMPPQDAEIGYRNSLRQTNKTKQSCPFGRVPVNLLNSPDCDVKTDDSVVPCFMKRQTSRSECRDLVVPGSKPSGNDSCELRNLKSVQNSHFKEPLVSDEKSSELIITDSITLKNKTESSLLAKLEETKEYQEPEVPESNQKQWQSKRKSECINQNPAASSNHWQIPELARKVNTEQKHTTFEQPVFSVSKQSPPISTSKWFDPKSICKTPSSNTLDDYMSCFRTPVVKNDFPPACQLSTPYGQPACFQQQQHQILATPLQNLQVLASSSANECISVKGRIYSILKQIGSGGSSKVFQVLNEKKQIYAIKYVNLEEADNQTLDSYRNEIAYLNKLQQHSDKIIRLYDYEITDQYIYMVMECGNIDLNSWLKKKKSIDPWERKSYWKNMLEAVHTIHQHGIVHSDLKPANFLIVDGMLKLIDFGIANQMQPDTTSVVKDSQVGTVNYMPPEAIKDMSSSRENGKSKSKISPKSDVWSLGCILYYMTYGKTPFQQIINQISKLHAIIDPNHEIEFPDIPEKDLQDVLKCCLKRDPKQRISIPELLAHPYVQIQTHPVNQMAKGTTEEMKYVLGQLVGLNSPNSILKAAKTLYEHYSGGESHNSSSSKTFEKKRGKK

[10] = biological target: BDNF/NT-3 growth factors receptor (Homo sapiens) (UniProt Q16620); assay: Inhibition of T7 bacteriophage fused human TRKB at 10 uM by KINOMEscan analysis relative to control
[11] = biological target: High affinity nerve growth factor receptor (Homo sapiens) (UniProt P04629); assay: Inhibition of T7 bacteriophage fused human TRKA at 10 uM by KINOMEscan analysis relative to control
[12] = biological target: Tyrosine-protein kinase TXK (Homo sapiens) (UniProt P42681); assay: Inhibition of T7 bacteriophage fused human TXK at 10 uM by KINOMEscan analysis relative to control
[13] = biological target: Proto-oncogene tyrosine-protein kinase Src (Homo sapiens) (UniProt P12931); assay: Inhibition of T7 bacteriophage fused human SRC at 10 uM by KINOMEscan analysis relative to control
[14] = biological target: SRSF protein kinase 1 (Homo sapiens) (UniProt Q96SB4); assay: Inhibition of T7 bacteriophage fused human SRPK1 at 10 uM by KINOMEscan analysis relative to control
[15] = Inhibition of T7 bacteriophage fused Plasmodium falciparum CDPK1 at 10 uM by KINOMEscan analysis relative to control; conditions: condition cancer
[16] = biological target: Testis-specific serine/threonine-protein kinase 1 (Homo sapiens) (UniProt Q9BXA7); assay: Inhibition of T7 bacteriophage fused human TSSK1B at 10 uM by KINOMEscan analysis relative to control
[17] = biological target: Serine/threonine-protein kinase tousled-like 2 (Homo sapiens) (UniProt Q86UE8); assay: Inhibition of T7 bacteriophage fused human TLK2 at 10 uM by KINOMEscan analysis relative to control
[18] = biological target: SNF-related serine/threonine-protein kinase (Homo sapiens) (UniProt Q9NRH2); assay: Inhibition of T7 bacteriophage fused human SNRK at 10 uM by KINOMEscan analysis relative to control
[19] = biological target: Peripheral plasma membrane protein CASK (Homo sapiens) (UniProt O14936); assay: Inhibition of T7 bacteriophage fused human CASK at 10 uM by KINOMEscan analysis relative to control
[20] = biological target: Serine/threonine-protein kinase VRK2 (Homo sapiens) (UniProt Q86Y07); assay: Inhibition of T7 bacteriophage fused human VRK2 at 10 uM by KINOMEscan analysis relative to control
[21] = biological target: Tyrosine-protein kinase Srms (Homo sapiens) (UniProt Q9H3Y6); assay: Inhibition of T7 bacteriophage fused human SRMS at 10 uM by KINOMEscan analysis relative to control
[22] = biological target: TRAF2 and NCK-interacting protein kinase (Homo sapiens) (UniProt Q9UKE5); assay: Inhibition of T7 bacteriophage fused human TNIK at 10 uM by KINOMEscan analysis relative to control
[23] = biological target: NUAK family SNF1-like kinase 2 (Homo sapiens) (UniProt Q9H093); assay: Inhibition of T7 bacteriophage fused human SNARK at 10 uM by KINOMEscan analysis relative to control
[24] = biological target: NT-3 growth factor receptor (Homo sapiens) (UniProt Q16288); assay: Inhibition of T7 bacteriophage fused human TRKC at 10 uM by KINOMEscan analysis relative to control

Serine/threonine-protein kinase 33 (Homo sapiens), sequence (Q9BYT3 whole entry, looked up, the tested form may be a part): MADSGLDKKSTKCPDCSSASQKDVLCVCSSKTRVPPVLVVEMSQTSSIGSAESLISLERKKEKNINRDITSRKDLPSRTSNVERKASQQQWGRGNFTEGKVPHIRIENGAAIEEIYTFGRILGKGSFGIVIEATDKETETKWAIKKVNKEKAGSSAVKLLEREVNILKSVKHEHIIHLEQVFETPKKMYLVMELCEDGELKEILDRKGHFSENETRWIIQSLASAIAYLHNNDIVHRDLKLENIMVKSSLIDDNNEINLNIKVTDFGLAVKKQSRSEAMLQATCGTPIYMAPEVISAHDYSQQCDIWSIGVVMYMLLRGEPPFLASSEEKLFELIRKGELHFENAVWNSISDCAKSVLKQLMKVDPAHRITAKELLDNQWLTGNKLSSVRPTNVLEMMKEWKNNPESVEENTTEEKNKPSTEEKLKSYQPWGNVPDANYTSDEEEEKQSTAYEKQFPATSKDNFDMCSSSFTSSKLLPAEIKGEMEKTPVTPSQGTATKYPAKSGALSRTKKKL
Tyrosine-protein kinase Tec (Homo sapiens), sequence (P42680 whole entry, looked up, the tested form may be a part): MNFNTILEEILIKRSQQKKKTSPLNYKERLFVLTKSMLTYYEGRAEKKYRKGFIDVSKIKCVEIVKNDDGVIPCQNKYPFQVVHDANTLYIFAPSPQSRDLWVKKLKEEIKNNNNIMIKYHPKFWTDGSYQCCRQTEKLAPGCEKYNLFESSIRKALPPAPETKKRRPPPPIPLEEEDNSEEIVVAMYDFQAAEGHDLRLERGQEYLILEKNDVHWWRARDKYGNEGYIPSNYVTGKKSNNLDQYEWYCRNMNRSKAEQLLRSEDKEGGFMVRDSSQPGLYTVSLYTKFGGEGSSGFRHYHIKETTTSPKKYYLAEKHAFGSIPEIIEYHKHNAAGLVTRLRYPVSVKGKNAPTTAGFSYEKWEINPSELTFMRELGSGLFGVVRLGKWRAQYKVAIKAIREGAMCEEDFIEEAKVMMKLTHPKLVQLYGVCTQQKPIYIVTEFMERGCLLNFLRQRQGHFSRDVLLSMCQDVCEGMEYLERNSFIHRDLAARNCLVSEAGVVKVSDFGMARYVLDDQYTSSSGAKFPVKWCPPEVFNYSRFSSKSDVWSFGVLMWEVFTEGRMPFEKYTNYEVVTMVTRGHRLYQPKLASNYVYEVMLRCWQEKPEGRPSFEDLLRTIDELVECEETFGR
SRSF protein kinase 3 (Homo sapiens), sequence (Q9UPE1 whole entry, the tested form may be a part): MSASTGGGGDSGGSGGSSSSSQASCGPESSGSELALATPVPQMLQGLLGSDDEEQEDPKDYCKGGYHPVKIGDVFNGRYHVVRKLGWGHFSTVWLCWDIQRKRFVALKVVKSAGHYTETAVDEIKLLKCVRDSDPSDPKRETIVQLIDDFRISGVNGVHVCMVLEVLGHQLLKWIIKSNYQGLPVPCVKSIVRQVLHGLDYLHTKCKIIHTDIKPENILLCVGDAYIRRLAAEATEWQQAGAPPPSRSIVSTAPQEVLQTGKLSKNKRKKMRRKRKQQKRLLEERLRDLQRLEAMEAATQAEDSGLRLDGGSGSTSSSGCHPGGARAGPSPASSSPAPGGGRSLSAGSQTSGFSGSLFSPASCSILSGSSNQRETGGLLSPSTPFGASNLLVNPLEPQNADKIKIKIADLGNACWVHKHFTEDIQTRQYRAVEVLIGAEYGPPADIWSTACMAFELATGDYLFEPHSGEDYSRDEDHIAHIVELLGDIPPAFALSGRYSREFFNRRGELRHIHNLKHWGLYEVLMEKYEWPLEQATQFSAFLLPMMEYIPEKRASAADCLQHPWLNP
Tyrosine-protein kinase TXK (Homo sapiens), sequence (P42681 whole entry, the tested form may be a part): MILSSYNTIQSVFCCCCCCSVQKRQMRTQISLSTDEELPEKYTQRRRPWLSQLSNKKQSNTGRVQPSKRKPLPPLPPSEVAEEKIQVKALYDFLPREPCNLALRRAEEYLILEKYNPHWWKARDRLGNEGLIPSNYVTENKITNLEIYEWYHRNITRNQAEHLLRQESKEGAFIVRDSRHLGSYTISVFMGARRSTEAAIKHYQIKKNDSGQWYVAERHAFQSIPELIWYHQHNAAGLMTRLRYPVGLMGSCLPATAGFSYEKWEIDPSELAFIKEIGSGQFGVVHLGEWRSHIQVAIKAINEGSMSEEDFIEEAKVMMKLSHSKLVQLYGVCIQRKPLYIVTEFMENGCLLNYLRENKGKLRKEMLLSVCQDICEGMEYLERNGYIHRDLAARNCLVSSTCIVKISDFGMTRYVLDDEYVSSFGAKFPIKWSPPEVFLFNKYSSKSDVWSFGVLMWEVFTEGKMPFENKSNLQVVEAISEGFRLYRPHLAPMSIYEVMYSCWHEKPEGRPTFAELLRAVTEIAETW
Serine/threonine-protein kinase tousled-like 2 (Homo sapiens), sequence (Q86UE8 whole entry, looked up, the tested form may be a part): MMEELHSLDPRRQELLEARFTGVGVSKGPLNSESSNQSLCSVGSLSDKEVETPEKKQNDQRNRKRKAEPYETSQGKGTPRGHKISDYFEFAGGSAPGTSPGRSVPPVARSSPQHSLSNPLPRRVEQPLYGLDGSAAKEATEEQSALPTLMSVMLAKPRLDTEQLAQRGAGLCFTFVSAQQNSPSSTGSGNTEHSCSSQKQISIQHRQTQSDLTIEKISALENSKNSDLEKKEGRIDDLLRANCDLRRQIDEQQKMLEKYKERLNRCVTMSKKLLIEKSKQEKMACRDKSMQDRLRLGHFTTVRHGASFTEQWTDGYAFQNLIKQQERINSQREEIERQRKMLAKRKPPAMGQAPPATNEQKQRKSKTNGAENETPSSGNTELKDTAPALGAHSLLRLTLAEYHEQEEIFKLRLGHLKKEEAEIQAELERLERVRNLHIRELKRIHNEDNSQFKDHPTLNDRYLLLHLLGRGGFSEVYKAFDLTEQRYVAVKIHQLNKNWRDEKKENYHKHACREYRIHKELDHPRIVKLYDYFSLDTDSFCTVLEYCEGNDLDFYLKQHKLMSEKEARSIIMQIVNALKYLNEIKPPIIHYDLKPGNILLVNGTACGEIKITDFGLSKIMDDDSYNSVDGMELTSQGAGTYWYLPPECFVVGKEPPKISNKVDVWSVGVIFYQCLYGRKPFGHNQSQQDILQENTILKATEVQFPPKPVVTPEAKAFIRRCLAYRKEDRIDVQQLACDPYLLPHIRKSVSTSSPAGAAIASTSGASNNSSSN
Peripheral plasma membrane protein CASK (Homo sapiens), sequence (O14936 whole entry, looked up, the tested form may be a part): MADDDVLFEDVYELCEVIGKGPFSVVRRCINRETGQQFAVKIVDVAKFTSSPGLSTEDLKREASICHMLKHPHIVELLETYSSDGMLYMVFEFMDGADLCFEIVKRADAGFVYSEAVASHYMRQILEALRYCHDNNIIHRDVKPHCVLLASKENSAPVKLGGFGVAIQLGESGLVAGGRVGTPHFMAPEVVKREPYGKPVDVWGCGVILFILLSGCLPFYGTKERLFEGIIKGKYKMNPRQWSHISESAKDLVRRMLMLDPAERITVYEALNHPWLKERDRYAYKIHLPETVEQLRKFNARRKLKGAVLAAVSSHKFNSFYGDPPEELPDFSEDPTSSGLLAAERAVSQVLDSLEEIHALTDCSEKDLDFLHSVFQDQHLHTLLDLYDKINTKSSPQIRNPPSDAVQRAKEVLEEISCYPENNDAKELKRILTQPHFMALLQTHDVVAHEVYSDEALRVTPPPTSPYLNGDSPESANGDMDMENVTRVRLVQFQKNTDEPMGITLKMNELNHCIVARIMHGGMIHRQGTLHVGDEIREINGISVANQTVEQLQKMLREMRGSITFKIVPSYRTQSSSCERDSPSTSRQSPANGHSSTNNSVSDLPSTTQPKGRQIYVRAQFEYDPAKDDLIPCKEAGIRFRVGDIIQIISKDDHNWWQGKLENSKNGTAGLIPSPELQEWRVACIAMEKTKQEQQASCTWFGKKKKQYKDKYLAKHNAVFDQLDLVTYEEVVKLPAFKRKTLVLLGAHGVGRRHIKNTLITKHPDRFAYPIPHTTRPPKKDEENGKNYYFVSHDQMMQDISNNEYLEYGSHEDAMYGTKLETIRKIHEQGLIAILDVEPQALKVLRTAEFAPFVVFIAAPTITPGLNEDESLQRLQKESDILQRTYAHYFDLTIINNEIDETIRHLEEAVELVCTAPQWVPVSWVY
SRSF protein kinase 1 (Homo sapiens), sequence (Q96SB4 whole entry, the tested form may be a part): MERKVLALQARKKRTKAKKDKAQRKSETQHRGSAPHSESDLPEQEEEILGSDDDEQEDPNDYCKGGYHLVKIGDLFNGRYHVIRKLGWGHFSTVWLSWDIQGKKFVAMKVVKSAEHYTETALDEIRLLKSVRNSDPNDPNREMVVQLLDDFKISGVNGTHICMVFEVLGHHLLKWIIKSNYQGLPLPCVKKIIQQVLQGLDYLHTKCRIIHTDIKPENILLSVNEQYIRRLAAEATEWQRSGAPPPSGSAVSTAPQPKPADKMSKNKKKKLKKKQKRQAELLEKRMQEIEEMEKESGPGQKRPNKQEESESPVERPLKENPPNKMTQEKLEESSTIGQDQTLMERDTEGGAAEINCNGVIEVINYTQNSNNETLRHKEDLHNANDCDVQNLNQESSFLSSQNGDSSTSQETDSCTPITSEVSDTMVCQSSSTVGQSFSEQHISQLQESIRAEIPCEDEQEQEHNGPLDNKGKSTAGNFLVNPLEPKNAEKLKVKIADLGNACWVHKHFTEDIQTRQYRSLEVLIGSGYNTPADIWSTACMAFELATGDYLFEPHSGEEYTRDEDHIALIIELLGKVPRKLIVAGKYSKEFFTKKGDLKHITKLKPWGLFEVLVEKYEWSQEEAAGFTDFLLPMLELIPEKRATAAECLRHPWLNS
Cyclin-dependent kinase 2 homolog (Plasmodium falciparum (isolate K1 / Thailand)), sequence (Q07785 whole entry, the tested form may be a part): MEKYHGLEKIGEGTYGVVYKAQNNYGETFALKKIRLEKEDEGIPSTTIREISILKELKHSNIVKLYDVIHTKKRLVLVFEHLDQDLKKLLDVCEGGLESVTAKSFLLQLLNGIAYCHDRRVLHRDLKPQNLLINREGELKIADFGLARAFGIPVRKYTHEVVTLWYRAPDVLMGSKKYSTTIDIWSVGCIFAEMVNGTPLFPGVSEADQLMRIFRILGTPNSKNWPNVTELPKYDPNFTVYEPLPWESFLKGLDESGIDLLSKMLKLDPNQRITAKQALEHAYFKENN

SMILES | inhibition [1] | inhibition [2] | inhibition [3] | inhibition [4] | inhibition [5] | residual activity [6] | inhibition [7] | inhibition [8] | inhibition [9] | inhibition [10] | inhibition [11] | inhibition [12] | inhibition [13] | inhibition [14] | inhibition at 10 µM [15] | inhibition [16] | inhibition [17] | inhibition [18] | inhibition [19] | inhibition [20] | further results
CCOc1cc(C(=O)N2CCC(N3CCN(C)CC3)CC2)ccc1Nc1ncc2c(n1)N(C1CCCC1)c1ccccc1C(=O)N2C | 100% | 100% | 100% | 100% | 100% | 100% | 100% | 100% | 49% | 100% | 100% | 100% | 100% | 100% | 100% | 100% | 100% | 52% |  |  | 
COc1cc(N2CCC(N3CCN(C)CC3)CC2)ccc1Nc1ncc2c(n1)N(C)c1ccccc1C(=O)N2C | 77% | 10% | 72% | 98% | 100% | 100% | 100% | 100% | 28% | 100% | 69% | 91% | 100% | 94% | 100% | 60% | 99% | 94% | 85% | 99% | inhibition [21]: 77%; inhibition [22]: 100%; inhibition [23]: 47%; inhibition [24]: 100%
COc1cc(C(=O)N2CCC(N3CCN(C)CC3)CC2)ccc1Nc1ncc2c(n1)N(C1CCCC1)c1ccccc1C(=O)N2C |  |  |  |  |  |  |  |  |  |  |  |  |  |  |  |  |  |  | 100% | 100% | inhibition [21]: 100%; inhibition [22]: 100%; inhibition [23]: 100%; inhibition [24]: 100%
